By Ki is commonly meant a dissociation constant, usually derived from enzyme kinetics or from competition with a known ligand.

This is an account of results in ChEMBL document CHEMBL1136048, “2a-[4-(Tetrahydropyridoindol-2-yl)butyl]tetrahydrobenzindole derivatives: new selective antagonists of the 5-hydroxytryptamine7 receptor” (J Med Chem, 2002).

SMILES strings stand for the structures.

Experiment [1] deals with Serotonin 2 (5-HT2) receptor (Rattus norvegicus, UniProt P30994+P08909+P14842). Briefly: In vitro binding affinity to 5-hydroxytryptamine 2 receptor of rat cerebral cortex membranes using [3H]ketanserin as the radioligand. It counts as tissue-based, Membrane.
For experiment [2], the target named is 5-hydroxytryptamine receptor 7 (Homo sapiens, UniProt P34969). Briefly: Binding affinity to human recombinant 5-hydroxytryptamine 7 receptor in mammalian cells using [3H]5-CT as radioligand. It counts as cell-based.
Experiment [3] concerns the target T1, Serotonin 3 receptor (5HT3) (Mus musculus, UniProt Q9JHJ5+P23979).
T1 sequence (Q9JHJ5 whole entry): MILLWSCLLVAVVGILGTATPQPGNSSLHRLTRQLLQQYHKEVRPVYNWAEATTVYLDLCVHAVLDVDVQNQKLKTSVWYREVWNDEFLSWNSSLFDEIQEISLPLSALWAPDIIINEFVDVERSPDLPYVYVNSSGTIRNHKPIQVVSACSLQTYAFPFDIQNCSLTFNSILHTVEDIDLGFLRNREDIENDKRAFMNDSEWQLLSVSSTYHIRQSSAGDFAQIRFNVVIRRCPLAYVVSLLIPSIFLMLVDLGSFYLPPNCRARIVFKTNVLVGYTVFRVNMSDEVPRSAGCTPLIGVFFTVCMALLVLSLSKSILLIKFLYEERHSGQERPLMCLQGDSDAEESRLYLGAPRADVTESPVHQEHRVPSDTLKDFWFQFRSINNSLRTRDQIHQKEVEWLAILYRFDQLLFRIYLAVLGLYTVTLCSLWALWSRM
T1 sequence (P23979 whole entry): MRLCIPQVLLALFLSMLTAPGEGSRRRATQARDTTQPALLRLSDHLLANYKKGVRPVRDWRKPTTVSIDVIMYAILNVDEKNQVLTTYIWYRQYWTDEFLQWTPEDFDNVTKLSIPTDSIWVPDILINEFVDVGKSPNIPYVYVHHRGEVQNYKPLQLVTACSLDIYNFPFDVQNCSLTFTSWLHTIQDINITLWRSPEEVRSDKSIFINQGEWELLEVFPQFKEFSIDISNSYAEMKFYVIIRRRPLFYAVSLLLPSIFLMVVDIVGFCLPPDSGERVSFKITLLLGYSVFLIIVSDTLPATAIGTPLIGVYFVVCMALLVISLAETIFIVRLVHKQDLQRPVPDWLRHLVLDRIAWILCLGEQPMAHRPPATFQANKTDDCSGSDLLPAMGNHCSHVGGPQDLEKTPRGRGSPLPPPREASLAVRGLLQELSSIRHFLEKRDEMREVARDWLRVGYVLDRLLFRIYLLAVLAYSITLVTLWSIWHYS
Nature of the experiment: In vitro binding affinity at 5-hydroxytryptamine 3 receptor in N1E-115 cells using 3[H]GR-65630 as the radioligand. It counts as cell-based.

Experiment [4] concerns the target 5-hydroxytryptamine receptor 1B (Rattus norvegicus, UniProt P28564). Briefly: In vitro binding affinity at 5-hydroxytryptamine 1B receptor in rat striatal […] using [125I](-)-iodocyanopindolol as the radioligand.
Experiment [5] has as its target 5-hydroxytryptamine receptor 4 (Cavia porcellus, UniProt O70528). Briefly: In vitro binding affinity at 5-hydroxytryptamine 4 receptor in guinea pig striatum using 3[H]GR-113808 as the radioligand. The experiment is classed as tissue-based.
Experiment [6] has as its target T2, 5-hydroxytryptamine receptor 1A (Homo sapiens, UniProt P08908).
T2 sequence (P08908 whole entry): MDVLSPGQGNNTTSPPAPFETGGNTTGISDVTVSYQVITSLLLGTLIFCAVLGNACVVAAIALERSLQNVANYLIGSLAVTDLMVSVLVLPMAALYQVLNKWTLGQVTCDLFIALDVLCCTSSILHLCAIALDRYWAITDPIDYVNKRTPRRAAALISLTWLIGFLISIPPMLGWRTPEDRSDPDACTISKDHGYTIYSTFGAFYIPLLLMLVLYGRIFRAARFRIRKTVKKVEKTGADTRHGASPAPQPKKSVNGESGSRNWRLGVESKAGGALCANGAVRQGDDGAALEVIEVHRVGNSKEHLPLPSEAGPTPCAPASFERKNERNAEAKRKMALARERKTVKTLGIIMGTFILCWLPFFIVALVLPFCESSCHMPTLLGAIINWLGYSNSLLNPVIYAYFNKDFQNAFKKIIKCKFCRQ
Briefly: In vitro binding affinity at human recombinant 5-hydroxytryptamine 1A receptor in mammalian cells using 3[H]8-OH-DPAT as the radioligand. The experiment is classed as cell-based.

The target in experiment [7] is 5-hydroxytryptamine receptor 6 (Homo sapiens, UniProt P50406). Nature of the experiment: In vitro binding affinity at human recombinant 5-hydroxytryptamine 6 receptor in mammalian cells using 3[H]LSD as the radioligand. It counts as cell-based.
5-hydroxytryptamine receptor 6, sequence (P50406 whole entry): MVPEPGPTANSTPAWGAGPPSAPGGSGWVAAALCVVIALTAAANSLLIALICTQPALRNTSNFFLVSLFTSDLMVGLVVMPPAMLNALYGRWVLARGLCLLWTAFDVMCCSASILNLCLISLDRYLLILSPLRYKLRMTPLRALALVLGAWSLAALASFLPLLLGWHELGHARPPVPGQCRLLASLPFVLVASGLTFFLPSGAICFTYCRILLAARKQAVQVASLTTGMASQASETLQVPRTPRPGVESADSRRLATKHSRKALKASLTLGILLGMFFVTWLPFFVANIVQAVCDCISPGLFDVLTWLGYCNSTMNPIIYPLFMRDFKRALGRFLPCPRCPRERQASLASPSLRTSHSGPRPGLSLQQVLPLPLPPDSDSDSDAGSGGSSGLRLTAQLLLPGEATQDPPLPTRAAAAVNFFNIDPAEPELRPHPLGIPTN

5-hydroxytryptamine receptor 7, sequence (P34969 whole entry): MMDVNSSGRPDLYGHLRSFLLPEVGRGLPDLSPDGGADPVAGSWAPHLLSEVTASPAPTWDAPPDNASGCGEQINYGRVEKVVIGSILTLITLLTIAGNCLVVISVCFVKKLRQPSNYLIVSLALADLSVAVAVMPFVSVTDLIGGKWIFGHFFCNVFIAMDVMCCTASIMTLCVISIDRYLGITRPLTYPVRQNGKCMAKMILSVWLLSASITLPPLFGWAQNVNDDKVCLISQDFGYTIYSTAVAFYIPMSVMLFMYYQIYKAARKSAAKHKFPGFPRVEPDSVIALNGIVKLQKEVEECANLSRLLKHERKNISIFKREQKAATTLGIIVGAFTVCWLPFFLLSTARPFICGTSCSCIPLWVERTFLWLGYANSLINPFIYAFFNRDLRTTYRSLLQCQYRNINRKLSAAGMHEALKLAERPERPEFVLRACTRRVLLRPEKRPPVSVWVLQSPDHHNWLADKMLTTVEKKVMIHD
5-hydroxytryptamine receptor 1B, sequence (P28564 whole entry): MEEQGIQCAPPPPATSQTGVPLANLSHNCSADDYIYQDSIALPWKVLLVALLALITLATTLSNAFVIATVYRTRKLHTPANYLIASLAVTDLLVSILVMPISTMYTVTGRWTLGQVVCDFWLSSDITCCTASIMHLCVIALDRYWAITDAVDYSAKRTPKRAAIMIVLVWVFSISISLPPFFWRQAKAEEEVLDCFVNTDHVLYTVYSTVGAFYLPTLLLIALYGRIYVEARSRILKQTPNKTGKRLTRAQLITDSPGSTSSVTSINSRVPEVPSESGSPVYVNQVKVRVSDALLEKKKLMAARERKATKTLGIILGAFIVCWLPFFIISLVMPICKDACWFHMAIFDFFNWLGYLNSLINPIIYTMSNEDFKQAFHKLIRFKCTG
5-hydroxytryptamine receptor 4, sequence (O70528 whole entry): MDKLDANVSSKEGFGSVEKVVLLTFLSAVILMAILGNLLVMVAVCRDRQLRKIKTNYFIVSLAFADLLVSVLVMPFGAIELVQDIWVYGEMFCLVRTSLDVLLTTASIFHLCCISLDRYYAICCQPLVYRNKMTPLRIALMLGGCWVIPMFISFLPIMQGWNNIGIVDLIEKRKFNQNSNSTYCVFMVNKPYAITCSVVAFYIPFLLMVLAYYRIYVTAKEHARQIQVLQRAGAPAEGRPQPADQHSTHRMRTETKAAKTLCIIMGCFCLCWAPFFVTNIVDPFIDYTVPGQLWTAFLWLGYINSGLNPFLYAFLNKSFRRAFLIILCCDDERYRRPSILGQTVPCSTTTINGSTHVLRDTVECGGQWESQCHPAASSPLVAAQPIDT

In the case of `O=C1Nc2cccc3c2C1(CCCCN1CCC(c2ccccc2)CC1)CCC3` (stereo not drawn), the “Log Ki” value in experiment [1] is -6.84. In experiment [2], the Ki was 3.98 nM.
On to `NCCc1c[nH]c2ccc(C(N)=O)cc12`, for which, in experiment [1], the “Log Ki” value was < -6.
Consider `O=C1Nc2cccc3c2C1(CCCCN1CCN(C2CCCCC2)CC1)CCC3` (stereo not drawn), for which the “Log Ki” value in experiment [1] is < -6.
For `O=C1Nc2cccc3c2C1(CCCCN1CCC(O)(c2ccccc2)CC1)CCC3` (stereo not drawn), the “Log Ki” value in experiment [1] is recorded as -6.35. For the same compound, the Ki in experiment [2] is 43.7 nM.
On to `Cc1cccc(C)c1N1CCN(CCCCC23CCCc4cccc(c42)NC3=O)CC1` (stereo not drawn), for which the “Log Ki” value in experiment [1] was -5.85. Further, the Ki in experiment [2] was 148 nM.
For `C=CCn1c2c(c3ccccc31)CCN(CCCCC13CCCc4cccc(c41)NC3=O)C2` (stereo not drawn), in that order: -6.55 and 6.03 nM.
Regarding `CC(=O)c1ccccc1N1CCN(CCCCC23CCCc4cccc(c42)NC3=O)CC1` (stereo not drawn), the “Log Ki” value in experiment [1] is on record as -6.45. In addition, the Ki in experiment [2] was 7.94 nM.
For `Cc1ccccc1N1CCN(CCCCC23CCCc4cccc(c42)NC3=O)CC1` (stereo not drawn), in experiment [1], the “Log Ki” value is recorded as -7.35. Besides, the Ki in experiment [2] is 10.5 nM.
For the compound `Cc1ccc(C2=CCN(CCCCC34CCCc5cccc(c53)NC4=O)CC2)cc1` (stereo not drawn), in experiment [1], the “Log Ki” value was -6.94. Further, in experiment [2], the Ki was 4.79 nM.
For `Cn1c2c(c3ccccc31)CCN(CCCCC13CCCc4cccc(c41)NC3=O)C2` (stereo not drawn), in that order: -6.28 and 19.1 nM.
The matching figures for `O=C1Nc2cccc3c2C1(CCCCN1CCN(c2ccccc2Cl)CC1)CCC3` (stereo not drawn): -7.01 and 12.3 nM.
For `COC1(c2ccccc2)CCN(CCCCC23CCCc4cccc(c42)NC3=O)CC1` (stereo not drawn), in that order: -6.43 and 21.9 nM.
With `CC(=O)C1(c2ccccc2)CCN(CCCCC23CCCc4cccc(c42)NC3=O)CC1` (stereo not drawn), the “Log Ki” value in experiment [1] is reported as -7.01. For the same compound, the Ki in experiment [2] was 72.4 nM.
For `COc1ccc2[nH]c3c(c2c1)CCN(CCCCC12CCCc4cccc(c41)NC2=O)C3` (stereo not drawn), in that order: -6.17 and 29.5 nM.
The matching figures for `O=C1Nc2cccc3c2C1(CCCCN1CC=C(c2ccc(F)cc2)CC1)CCC3` (stereo not drawn): -7.1 and 3.55 nM.
In the case of `O=C1Nc2ccc(O)c3c2C1(CCCCN1CC=C(c2ccccc2)CC1)CCC3` (stereo not drawn), the “Log Ki” value in experiment [1] is given as -7.4. Further, the Ki in experiment [2] was 8.13 nM.
Turning to `CNC(=O)Cn1c2c(c3ccccc31)CCN(CCCCC13CCCc4cccc(c41)NC3=O)C2` (stereo not drawn), the values for the Log Ki in experiment [3] and in experiment [1] were > -6 and < -6, respectively. Also, the Ki is > 1000 nM in experiment [4]; 490 nM in experiment [5]; 129 nM in experiment [6]; 3.55 nM in experiment [2]; > 1000 nM in experiment [7].
In the case of `NC(=O)C1(c2ccccc2)CCN(CCCCC23CCCc4cccc(c42)NC3=O)CC1` (stereo not drawn), in experiment [1], the “Log Ki” value is given as -7.8. Also, in experiment [2], the Ki was 224 nM.
The matching figures for `O=C1Nc2cccc3c2C1(CCCCN1CCN(c2ccccc2[N+](=O)[O-])CC1)CCC3` (stereo not drawn): -7.34 and 24 nM.
For `O=C1Nc2cccc3c2C1(CCCCN1CCN(c2ccccc2C(F)(F)F)CC1)CCC3` (stereo not drawn), in that order: -5.86 and 74.1 nM.
The matching figures for `COc1ccc2c3c1CCCC3(CCCCN1CC=C(c3ccccc3)CC1)C(=O)N2` (stereo not drawn): -7.55 and 110 nM.
As to `NC(=O)c1ccc2c3c1CCCC3(CCCCN1CC=C(c3ccccc3)CC1)C(=O)N2` (stereo not drawn), the “Log Ki” value in experiment [1] is recorded as -6.8. In addition, in experiment [2], the Ki was 417 nM.
For the compound `CN1C(=O)C2(CCCCN3CC=C(c4ccccc4)CC3)CCCc3cccc1c32` (stereo not drawn), the “Log Ki” value in experiment [1] is recorded as -6.88. Also, the Ki in experiment [2] was 25.1 nM.
The matching figures for `NC(=O)c1ccccc1N1CCN(CCCCC23CCCc4cccc(c42)NC3=O)CC1` (stereo not drawn): -6.05 and 17.4 nM.
For `NC(=O)Cn1c2c(c3ccccc31)CCN(CCCCC13CCCc4cccc(c41)NC3=O)C2` (stereo not drawn), in that order: -6.09 and 8.71 nM.
The matching figures for `O=C1Nc2ccc(Br)c3c2C1(CCCCN1CC=C(c2ccccc2)CC1)CCC3` (stereo not drawn): -6.54 and 12.3 nM.
For `CC(=O)c1ccc2c3c1CCCC3(CCCCN1CC=C(c3ccccc3)CC1)C(=O)N2` (stereo not drawn), the “Log Ki” value in experiment [1] is -7.12. For the same compound, the Ki in experiment [2] is 97.7 nM.
For `CN(C)C(=O)Cn1c2c(c3ccccc31)CCN(CCCCC13CCCc4cccc(c41)NC3=O)C2` (stereo not drawn), in that order: < -6 and 19.1 nM.
For `COCn1c2c(c3ccccc31)CCN(CCCCC13CCCc4cccc(c41)NC3=O)C2` (stereo not drawn), in that order: -6.24 and 17 nM.
For `CC(=O)n1c2c(c3ccccc31)CCN(CCCCC13CCCc4cccc(c41)NC3=O)C2` (stereo not drawn), in that order: -6.27 and 6.46 nM.
For `O=C1Nc2cccc3c2C1(CCCCN1CCc2c([nH]c4ccccc24)C1)CCC3` (stereo not drawn), the “Log Ki” value in experiment [1] is given as -6.62. In addition, the Ki in experiment [2] is 5.75 nM.
The matching figures for `COc1ccc(N2CCN(CCCCC34CCCc5cccc(c53)NC4=O)CC2)cc1` (stereo not drawn): -6.69 and 20.4 nM.
The matching figures for `COc1cccc(N2CCN(CCCCC34CCCc5cccc(c53)NC4=O)CC2)c1` (stereo not drawn): -7.19 and 2.34 nM.
For `CN(C)C(=O)n1c2c(c3ccccc31)CCN(CCCCC13CCCc4cccc(c41)NC3=O)C2` (stereo not drawn), in that order: -6.12 and 7.08 nM.
Consider `O=C1Nc2cccc3c2C1(CCCCN1CCN(c2ncccn2)CC1)CCC3` (stereo not drawn), for which the “Log Ki” value in experiment [1] is recorded as -6.91. Moreover, the Ki in experiment [2] was 45.7 nM.
